Experiment [1] deals with Cannabinoid receptor 2 (Homo sapiens) (UniProt P34972). Put plainly: Displacement of [3H]CP55940 from human recombinant CB2 receptor expressed in CHO cells at 10 uM after 2 hrs by liquid scintillation counting. Format: cell-based. Background: Loss of bound radioactivity is the signal in a displacement assay; it reports binding, not function.
The target in another experiment is Cannabinoid receptor 1 (Homo sapiens, UniProt P21554). Put plainly: Displacement of [3H]CP55940 from human recombinant CB1 receptor expressed in CHO cells after 2 hrs by liquid scintillation counting. Format: cell-based.
Sequence of Cannabinoid receptor 1 (P21554 whole entry): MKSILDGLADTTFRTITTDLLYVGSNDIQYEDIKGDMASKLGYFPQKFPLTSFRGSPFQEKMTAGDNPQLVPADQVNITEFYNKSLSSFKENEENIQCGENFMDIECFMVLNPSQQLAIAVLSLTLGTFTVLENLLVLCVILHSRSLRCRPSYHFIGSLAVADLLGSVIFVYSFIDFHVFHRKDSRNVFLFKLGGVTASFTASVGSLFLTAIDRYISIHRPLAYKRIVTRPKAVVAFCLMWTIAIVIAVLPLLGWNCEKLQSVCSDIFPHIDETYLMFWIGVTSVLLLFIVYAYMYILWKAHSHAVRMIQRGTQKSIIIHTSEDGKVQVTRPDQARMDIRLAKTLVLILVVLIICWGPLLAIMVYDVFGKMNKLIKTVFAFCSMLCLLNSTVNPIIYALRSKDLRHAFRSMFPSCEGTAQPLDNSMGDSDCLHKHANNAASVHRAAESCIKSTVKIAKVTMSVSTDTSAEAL

Calls of active or inactive are those of the source. No cut-off for these calls is given here.

The Ki is a dissociation constant, usually derived from enzyme kinetics or from competition with a known ligand.

Sequence of Cannabinoid receptor 2 (Homo sapiens) (P34972 whole entry): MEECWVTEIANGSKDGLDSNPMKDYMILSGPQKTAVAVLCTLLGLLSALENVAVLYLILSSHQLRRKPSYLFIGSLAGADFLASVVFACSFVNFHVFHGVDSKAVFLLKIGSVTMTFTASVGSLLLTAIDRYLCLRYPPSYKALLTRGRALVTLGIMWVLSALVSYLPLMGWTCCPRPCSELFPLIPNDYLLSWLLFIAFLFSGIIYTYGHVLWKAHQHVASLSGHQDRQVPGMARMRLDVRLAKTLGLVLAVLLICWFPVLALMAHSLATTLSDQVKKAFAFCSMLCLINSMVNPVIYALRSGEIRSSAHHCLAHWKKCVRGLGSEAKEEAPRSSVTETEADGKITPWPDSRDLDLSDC

With `C=CC(C)(C)[C@@]12C[C@H]3C(=O)N4[C@@H](C[C@@]5(C(C)(C)C=C)c6ccccc6N[C@@H]45)C(=O)N3[C@@H]1Nc1ccccc12` [AMAUROMINE], the outcome in experiment [1] was inactive. Also, the Ki on Cannabinoid receptor 1 turned out to be 178 nM.

The values are drawn from ChEMBL document CHEMBL2021922, “Identification of a Potent and Selective Cannabinoid CB1 Receptor Antagonist from Auxarthron reticulatum” (ACS Med Chem Lett, 2011).
